Laboratory results from patent publication US20250134917A1, “COMPOSITIONS AND METHODS OF REGENERATING HEART TISSUES WITH AMINOGLYCOSIDES” (The Board of Regents of The University of Texas System, priority 2022, published 2025).

What was measured:
[1] = test system: Meis1 transcriptional activity; assay: Meis1 luciferase transcriptional activity assay in NRVMs; type: cell-based, rat; settings: 10-500 nM, compared to control (PBS for neomycin, paromomycin; DMSO for rutin, hesperidin)
Excerpt: (§1) S1: HOXB13 DNA binding domain, S2: Meis1 DNA binding domain, and S3: Interacting interface between Meis1 and HOXB13 (PDB ID: 5EGO). […] Data are mean±s.e.m.; unpaired two-sided t-test. * P<0.05, ** P<0.01, *** P<0.001.

[2] = test system: HOXB13 transcriptional activity; assay: HOXB13 luciferase transcriptional activity assay in NRVMs; type: cell-based, rat; settings: 10-500 nM, compared to control (PBS for neomycin, paromomycin; DMSO for rutin, hesperidin)
Excerpt: as §1

[3] = target: T1, HOXB13 (Mus musculus, UniProt P70321); assay: Thermal shift assay on purified HOXB13 DBD; type: binding
T1 construct: made in house; host or cells: E. coli Rosetta (DE3) pLysS
Procedure: In another exemplary method, thermal shift analysis of aminoglycosides towards Meis1 and HOXB13 was performed. Initially, […] binding domains (DBDs) of Meis1 and HOXB13 were cloned, expressed, and purified to conduct the thermal shift assay (FIGS. 2A-2B). […] Protein Expression and Purification. mMeis1 and mHoxb13 were subcloned into pETDuet vector with noncleavable N-terminal 6×His tag and transformed into Rosetta (DE3) pLysS cells (Novagen). Target protein were expressed in cultures grown in autoinduction media at 18° C. overnight. The culture was harvested and sonicated in lysis buffer (20 mM Tris [pH=8.0], 1 M NaCl, 0.5 mM DTT, and supplemented with protease inhibitors). […] The eluate was concentrated and purified by gel filtration chromatography. The peak fractions were collected and concentrated to about . . . 0 mg/mL for crystallization screening.

[4] = test system: cardiomyocytes in the adult heart; assay: Cardiomyocyte proliferation in adult mice with no injury stimuli; type: in vivo, mouse
Procedure: In another exemplary method, cardiomyocyte proliferation in mice was assessed in the presence of paromomycin and paromomycin-neomycin. Based on the data resulting from the in vitro screening coupled and luciferase transcription activity assays detailed in the exemplary methods herein, paromomycin was initially selected to study its capacity to prolong cardiomyocytes proliferation in adult mice with no injury stimuli. The effect of paromomycin (Paro) (200 mg/kg/day, i.p.) and paromomycin-neomycin (Paro/Neo) combo (300 mg/kg/day, i.p.) was assessed after 2 weeks of injection on cell proliferation indices, cytokinesis, cardiomyocyte cell size, isolated cardiac cell count, and nucleation on the isolated cardiomyocytes in the adult heart (FIG. 3A, FIG. 4F). […] Animals. Mice were housed in a 12:12 h light: dark cycle in a temperature-controlled room with free access to water and food. Littermate controls were used whenever possible. Both male and female mice were used on age-matched and gender-matched mice. No statistical methods were used to predetermine sample size. All surgeries and echocardiographic studies were carried out blinded to the genotype of the mice during the experiments and outcome assessments. CD1 mice (Charles River Laboratories) were used for drug-tested studies. Drug administration. Tamoxifen (Sigma) was prepared by dissolving in sesame oil (Sigma) to a concentration of 10 mg ml^-1. For the MADM clonal analysis, 14 consecutive injections of tamoxifen were administered, and mice were euthanized 2 weeks after the last injection. For injection of Paromomycin and Neomycin, mice were administered twice daily. Mice were euthanized at the same time of day to limit circadian variability. Immunofluorescence staining. Heart cryosections were equilibrated with antigen retrieval buffer with 1 mM EDTA or epitope retrieval buffer (IHC World). Samples were permeabilized and blocked with 0.3% Triton X-100 and 10% serum from the host animal of secondary antibodies in PBS for 20 minutes at room temperature. Then, samples were incubated overnight at 4° C. with the primary antibodies. After three washes with PBS, samples were incubated for 1 hour at room temperature with corresponding fluorescence secondary antibodies conjugated to Alexa Fluor 488 or 555 (Invitrogen) at 1:400. The slides were mounted in Vectashield Antifade Mounting Medium (Vector Laboratories). Slides were viewed under Nikon fluorescence or Zeiss LSM 510 confocal microscopes. Primary antibodies used: phospho histone […] (EMD Millipore, 06-570; 1:100), aurora B kinase (Sigma, A5102; 1:25) to analyse cell cycle re-entry; troponin T, cardiac isoform Ab-1, clone 13-11 (Thermo Scientific, MS-295-P1; 1:200), sarcomeric α-actinin (Abcam, ab68167; 1:200) to identify cardiomyocytes. DAPI or Hoechst was used for nuclear staining. Images were obtained using a Nikon Eclipse Ni or Nikon A1 laser scanning confocal microscopes. WGA staining and cardiomyocyte size quantification. WGA staining and quantification was performed as previously described. In brief, the slides were incubated with WGA conjugated to Alexa Fluor 488 ([…], Life Technologies) for 1 hour at room temperature following washing with PBS. To quantify the cross-sectional cell size, three to five independent hearts per group with three different views and positions, each from left and right ventricles, and septum were captured at 40× magnification. ImageJ was used to quantify the size of cardiomyocytes that were round and contained a nucleus. At least 500 cells per sample were quantified. Cardiomyocyte isolation. Adult hearts were freshly collected and fixed in 4% paraformaldehyde at 4° C. overnight. The hearts were minced to smaller pieces and subsequently incubated with collagenase D (2.4 mg ml^-1, Roche) and B (1.8 mg ml^-1, Roche) for 12 h at 37° C. using an end-over-end shaker. The supernatants were collected via 160-μm nylon mesh filter, and the procedure was repeated until no more cardiomyocytes were dissociated from the tissue. […]

[5] = test system: cardiomyocytes of neonatal heart; assay: Cardiomyocyte proliferation in neonatal CD-1 mice; type: in vivo, mouse; settings: 300 mg/kg, i.p from p1 till p14, compared with controls
Procedure: Paromomycin-neomycin was administered to neonatal CD-1 mice at 300 mg/kg, i.p from p1 till p14. Hearts were collected for histological analysis (FIG. 4A).
Immunofluorescence staining. Heart cryosections were equilibrated with antigen retrieval buffer with 1 mM EDTA or epitope retrieval buffer (IHC World). Samples were permeabilized and blocked with 0.3% Triton X-100 and 10% serum from the host animal of secondary antibodies in PBS for 20 minutes at room temperature. Then, samples were incubated overnight at 4° C. with the primary antibodies. After three washes with PBS, samples were incubated for 1 hour at room temperature with corresponding fluorescence secondary antibodies conjugated to Alexa Fluor 488 or 555 (Invitrogen) at 1:400. The slides were mounted in Vectashield Antifade Mounting Medium (Vector Laboratories). Slides were viewed under Nikon fluorescence or Zeiss LSM 510 confocal microscopes. Primary antibodies used: phospho histone H3 Ser10 (EMD Millipore, 06-570; 1:100), aurora B kinase (Sigma, A5102; 1:25) to analyse cell cycle re-entry; troponin T, cardiac isoform Ab-1, clone 13-11 (Thermo Scientific, MS-295-P1; 1:200), sarcomeric α-actinin (Abcam, ab68167; 1:200) to identify cardiomyocytes. DAPI or Hoechst was used for nuclear staining. Images were obtained using a Nikon Eclipse Ni or Nikon A1 laser scanning confocal microscopes.

[6] = test system: mouse adult heart after myocardial infarction (MI); assay: Cardiac repair after myocardial infarction (LAD ligation) in adult mice; type: in vivo
Procedure: In another exemplary method, the ability of the aminoglycosides on cardiac repair and heart regeneration was assessed in the mouse adult heart after following myocardial infarction (MI). MI was induced in adult mice by permanent ligation of the proximal left anterior descending coronary artery. This was followed by examining the expression of cell cycle inhibitors two weeks after MI (one week after drug(s) injection) by western blot analysis. […] Meanwhile, MI was induced to monitor the pharmacodynamics of the administered drug(s) to improve cardiac function and promote heart regeneration for 8-weeks (FIG. 5A). One week after injury, paromomycin and paromomycin-neomycin combo (200 mg/kg/day, i.p.) was administered while assessment of left ventricular ejection fraction (LVEF) by echocardiography was performed 1-week post-surgery, 1 week after drug(s) administration and every 2 weeks thereafter until 8 weeks post-surgery. Murine model of MI. Induction of adult anterior wall MI was performed as similar to the methods described in Nguyen et al., Nature (2020) 582, 271-276, the disclosure of which is incorporated herein in its entirety. In brief, three-month-old mice were subjected to MI by ligation of the proximal aspect of the LAD coronary artery. Mice were anaesthetized in an airtight chamber using 4% isoflurane, endotracheally intubated, and ventilated using a volume-control ventilator with 100% O2, supplemented with 2% vaporized isoflurane (Harvard Apparatus). Following lateral thoracotomy and pericardiectomy, the LAD coronary artery was identified along the anterior wall of the LV. Prolene sutures (6-0 non-absorbable) was used to ligate the LAD. Proper occlusion of the LAD artery was noted by three criteria: immediate blanching of the LV anterior wall myocardium below the ligature, echocardiographic assessment 7 days post-surgery showing an ejection fraction in the range of 45-65%, and histological analysis. Vicryl sutures (6-0 absorbable) were used to close the thoracic cavity. Drugs administrated one week after MI. Mice were subjected to echocardiography at serial time points and then euthanized at 3 months after ligation. Hearts were collected and processed for histology and immunohistochemistry. Fibrotic scar size was measured using MIQuant similar to the method described in Nascimento et al., PLOS One (2011) 6, e25045, the disclosure of which is incorporated herein in its entirety. Transthoracic echocardiography. Assessment of in vivo heart function on conscious, non-sedated mice was performed using a Vevo2100 micro-ultrasound system, M[…] probe (VisualSonics) at baseline, 1 week after injury, 1 week after drug administration, and 4, 8, 12 and 16 weeks after occlusion. Echocardiographic M-mode images were obtained from a parasternal short-axis view at the level of the papillary muscles. Left ventricular internal diameters at end diastole (LVIDd) and end systole (LVIDs) were measured from M-mode recordings. Six representative contraction cycles were selected for analysis, and average indexes (LVIDd, LVIDs and fractional shortening) were calculated for each mouse. All echocardiography measurements were performed in a blinded manner. Histology. Hearts were collected and fixed in 4% paraformaldehyde in PBS overnight at 4° C. and then processed for either paraffin or cryo embedding. […] Protein concentration was quantified using Pierce BCA protein assay kit (Pierce Biotechnology), with three biological replicates. […]

[7] = adult CD-1 mice, i.p., 2 weeks, paromomycin 200 mg/kg, paromomycin-neomycin 300 mg/kg, Anti-Cnx43/DAPI, compared with controls
[8] = adult mice, i.p., 2 weeks, Paro 200 mg/kg/day, Paro/Neo combo 300 mg/kg/day, compared to control
[9] = adult mice, i.p., 2 weeks, Paro 200 mg/kg/day, Paro/Neo combo 300 mg/kg/day, compared to control-treated mice
[10] = two weeks after MI (one week after drug(s) injection)

T1 sequence (P70321 218-277 limits assumed): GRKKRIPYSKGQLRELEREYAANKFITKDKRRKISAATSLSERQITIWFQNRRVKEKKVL

| luciferase transcriptional activity for Meis1 [1] | luciferase transcriptional activity for HOXB13 [2] | change in the melting temperature of HOXB13 [3] | Compound | RFP+ and GFP+ single-labelled daughter cardiomyocytes ([4]; Mosaic Analysis with Double Markers (MADM) mice, lineage tracing, compared to control-treated mice) | bi- and multi-nucleation of isolated cardiomyocytes [4, 7] | mono-nucleation of isolated cardiomyocytes [4, 7] | cardiomyocytes cell size via wheat germ agglutinin (WGA) staining [4, 8] | cardiomyocytes undergoing cytokinesis via Aurkb+ staining [4, 8] | number of cardiomyocytes following dissociation of the heart by collagenase digestion ([4]; adult mice, i.p., 2 weeks, Paro 200 mg/kg/day, Paro/Neo combo 300 mg/kg/day, compared to control-treated hearts) | heart weight (HW)/body weight (BW) ratio [4, 9] | pH3+ cardiomyocytes (mitosis marker) [4, 9] | cardiomyocyte cytokinesis marker (AurkB and anti-cTnT co-immunostaining) [5] | cardiomyocyte mitosis marker (anti-pH3 and anti-cTnT co-immunostaining) [5] | left ventricular ejection fraction (LVEF) by echocardiography ([6]; 8 weeks post-surgery, drug i.p. from one week after injury, compared to control-treated mice) | wet to dry lung ratio ([6]; MI mouse model, Paromomycin 200 mg/kg, i.p., Paromomycin-Neomycin 300 mg/kg, 8 weeks, compared to controls) | fibrotic scar (size) ([6]; histological analysis, 8 weeks post-MI, compared to control-treated hearts) | p15/16 proteins (cell cycle inhibitor), western blot [6, 10] | p21 protein (cell cycle inhibitor), western blot [6, 10] |
| --- | --- | --- | --- | --- | --- | --- | --- | --- | --- | --- | --- | --- | --- | --- | --- | --- | --- | --- |
| significant downregulation | significant downregulation | noticeable change | neomycin |  |  |  |  |  |  |  |  |  |  |  |  |  |  |  |
| significant downregulation | significant downregulation |  | NC[C@@H]1O[C@H](O[C@H]2[C@@H](O)[C@H](O[C@@H]3[C@@H](O)[C@H](N)C[C@H](N)[C@H]3O[C@H]3O[C@H](CO)[C@@H](O)[C@H](O)[C@H]3N)O[C@@H]2CO)[C@H](N)[C@@H](O)[C@@H]1O [Paromomycin, paromomycin] | significant increased | significant decrease | significant increase | significant reduction | significant increase | significantly higher number | no significant difference | significant increase | significant increase | significant increase | maintain the LVEF | significant decrease | trending decline | decrease | decrease |

| Compound | luciferase transcriptional activity for Meis1 [1] | luciferase transcriptional activity for HOXB13 [2] | change in the melting temperature of HOXB13 [3] | RFP+ and GFP+ single-labelled daughter cardiomyocytes ([4]; Mosaic Analysis with Double Markers (MADM) mice, lineage tracing, compared to control-treated mice) | bi- and multi-nucleation of isolated cardiomyocytes [4, 7] | mono-nucleation of isolated cardiomyocytes [4, 7] | cardiomyocytes cell size via wheat germ agglutinin (WGA) staining [4, 8] | cardiomyocytes undergoing cytokinesis via Aurkb+ staining [4, 8] | number of cardiomyocytes following dissociation of the heart by collagenase digestion ([4]; adult mice, i.p., 2 weeks, Paro 200 mg/kg/day, Paro/Neo combo 300 mg/kg/day, compared to control-treated hearts) | heart weight (HW)/body weight (BW) ratio [4, 9] | pH3+ cardiomyocytes (mitosis marker) [4, 9] | cardiomyocyte cytokinesis marker (AurkB and anti-cTnT co-immunostaining) [5] | cardiomyocyte mitosis marker (anti-pH3 and anti-cTnT co-immunostaining) [5] | left ventricular ejection fraction (LVEF) by echocardiography ([6]; 8 weeks post-surgery, drug i.p. from one week after injury, compared to control-treated mice) | wet to dry lung ratio ([6]; MI mouse model, Paromomycin 200 mg/kg, i.p., Paromomycin-Neomycin 300 mg/kg, 8 weeks, compared to controls) | fibrotic scar (size) ([6]; histological analysis, 8 weeks post-MI, compared to control-treated hearts) | p15/16 proteins (cell cycle inhibitor), western blot [6, 10] | p21 protein (cell cycle inhibitor), western blot [6, 10] |
| --- | --- | --- | --- | --- | --- | --- | --- | --- | --- | --- | --- | --- | --- | --- | --- | --- | --- | --- |
| COc1ccc([C@@H]2CC(=O)c3c(O)cc(O[C@@H]4O[C@H](CO[C@@H]5O[C@@H](C)[C@H](O)[C@@H](O)[C@H]5O)[C@@H](O)[C@H](O)[C@H]4O)cc3O2)cc1O [Hesperidin, hesperidin] | poor inhibitory profile | poor inhibitory profile |  |  |  |  |  |  |  |  |  |  |  |  |  |  |  |  |
